# Data from patent US11572590B2, “Methods for evaluating tumor cell spheroids using 3D microfluidic cell culture device” (Dana-Farber Cancer Institute, Inc., priority 2017, dated 2023).
# Like-named read-outs stand apart in the source and are kept apart here.
# Key:
# Assay in all cases: SelectScreen Kinase Profiling, single point inhibition and IC50 for off-target kinases
# Assay type in all cases: biochemical
# off-target kinases [1] = target: off-target kinases (Homo sapiens, UniProt P07332); settings: FES (FPS), ZLYTE, ATP Km app
# off-target kinases [2] = target: T1, off-target kinases (Homo sapiens, UniProt Q9NRA0); settings: SPHK2; Cmpd1 1000 μM; ATP 10; Adapta
# T1 sequence (Q9NRA0 1-654): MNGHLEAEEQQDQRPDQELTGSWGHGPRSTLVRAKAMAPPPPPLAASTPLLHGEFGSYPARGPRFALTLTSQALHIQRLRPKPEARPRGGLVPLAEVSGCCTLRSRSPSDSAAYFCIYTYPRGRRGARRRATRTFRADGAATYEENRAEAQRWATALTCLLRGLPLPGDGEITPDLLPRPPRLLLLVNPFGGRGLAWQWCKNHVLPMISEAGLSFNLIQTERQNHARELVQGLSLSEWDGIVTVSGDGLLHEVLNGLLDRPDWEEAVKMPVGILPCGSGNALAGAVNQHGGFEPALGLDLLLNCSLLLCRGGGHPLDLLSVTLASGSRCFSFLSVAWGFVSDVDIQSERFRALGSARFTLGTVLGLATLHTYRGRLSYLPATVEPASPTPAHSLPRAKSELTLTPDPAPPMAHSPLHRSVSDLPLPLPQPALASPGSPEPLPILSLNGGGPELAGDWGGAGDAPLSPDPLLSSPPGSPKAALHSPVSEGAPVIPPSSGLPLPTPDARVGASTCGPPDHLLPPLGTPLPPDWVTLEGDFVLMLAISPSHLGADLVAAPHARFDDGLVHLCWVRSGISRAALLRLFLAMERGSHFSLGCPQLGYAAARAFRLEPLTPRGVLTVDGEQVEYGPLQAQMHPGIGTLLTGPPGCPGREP
# off-target kinases [3] = target: off-target kinases (Homo sapiens, UniProt Q9P1W9); settings: PIM2, ZLYTE, ATP Km app
# off-target kinases (Homo sapiens, UniProt Q9P1W9), sequence (Q9P1W9 whole entry): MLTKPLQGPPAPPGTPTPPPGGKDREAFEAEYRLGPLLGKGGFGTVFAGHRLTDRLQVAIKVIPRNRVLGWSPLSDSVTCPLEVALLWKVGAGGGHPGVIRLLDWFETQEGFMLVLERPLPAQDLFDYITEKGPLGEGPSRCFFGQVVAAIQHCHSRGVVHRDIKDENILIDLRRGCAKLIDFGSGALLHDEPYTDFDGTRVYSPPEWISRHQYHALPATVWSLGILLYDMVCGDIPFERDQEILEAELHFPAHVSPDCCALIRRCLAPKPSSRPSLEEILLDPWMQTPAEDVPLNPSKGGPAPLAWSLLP
# off-target kinases [4] = target: off-target kinases (Homo sapiens, UniProt P50613); settings: CDK7/cyclin H/MNAT1, Adapta, ATP Km app
# off-target kinases (Homo sapiens, UniProt P50613), sequence (P50613 whole entry): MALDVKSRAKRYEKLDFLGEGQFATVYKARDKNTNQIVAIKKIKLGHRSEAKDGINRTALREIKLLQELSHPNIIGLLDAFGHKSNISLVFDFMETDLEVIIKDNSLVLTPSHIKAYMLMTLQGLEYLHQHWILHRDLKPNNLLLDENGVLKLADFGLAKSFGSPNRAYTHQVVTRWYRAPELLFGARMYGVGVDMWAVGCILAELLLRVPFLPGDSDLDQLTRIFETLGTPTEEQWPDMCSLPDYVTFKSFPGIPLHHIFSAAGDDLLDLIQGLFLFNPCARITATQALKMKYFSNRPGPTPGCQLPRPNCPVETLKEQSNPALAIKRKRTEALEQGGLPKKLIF
# off-target kinases [5] = target: off-target kinases (Homo sapiens, UniProt P22607, K650M); settings: FGFR3 K650M, mutant y, LanthaScreen Binding
# off-target kinases (Homo sapiens, UniProt P22607, K650M), sequence (P22607 23-806 K650M): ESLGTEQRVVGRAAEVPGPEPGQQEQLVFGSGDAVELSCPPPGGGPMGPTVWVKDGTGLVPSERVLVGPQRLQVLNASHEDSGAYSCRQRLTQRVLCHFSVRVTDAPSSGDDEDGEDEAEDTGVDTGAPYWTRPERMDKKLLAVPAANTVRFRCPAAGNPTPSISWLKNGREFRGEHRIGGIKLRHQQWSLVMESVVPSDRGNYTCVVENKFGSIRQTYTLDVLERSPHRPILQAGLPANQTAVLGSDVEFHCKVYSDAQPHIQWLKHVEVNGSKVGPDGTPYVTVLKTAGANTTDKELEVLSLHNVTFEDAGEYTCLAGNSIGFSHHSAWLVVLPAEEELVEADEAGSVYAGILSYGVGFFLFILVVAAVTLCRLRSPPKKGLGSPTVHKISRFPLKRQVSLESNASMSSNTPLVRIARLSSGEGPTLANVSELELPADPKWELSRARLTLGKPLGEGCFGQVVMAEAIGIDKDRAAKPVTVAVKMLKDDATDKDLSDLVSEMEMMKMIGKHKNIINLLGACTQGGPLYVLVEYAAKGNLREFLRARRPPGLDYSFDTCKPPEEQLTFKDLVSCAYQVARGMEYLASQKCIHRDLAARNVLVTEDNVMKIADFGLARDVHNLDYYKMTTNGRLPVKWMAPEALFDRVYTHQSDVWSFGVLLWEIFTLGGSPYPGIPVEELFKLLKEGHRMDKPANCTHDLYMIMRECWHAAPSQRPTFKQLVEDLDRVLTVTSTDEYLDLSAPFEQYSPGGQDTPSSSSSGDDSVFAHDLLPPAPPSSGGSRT
# off-target kinases [6] = target: off-target kinases (Homo sapiens, UniProt P48729); settings: CSNK1A1 (CK1 alpha 1), ZLYTE, ATP Km app
# off-target kinases (Homo sapiens, UniProt P48729), sequence (P48729 whole entry): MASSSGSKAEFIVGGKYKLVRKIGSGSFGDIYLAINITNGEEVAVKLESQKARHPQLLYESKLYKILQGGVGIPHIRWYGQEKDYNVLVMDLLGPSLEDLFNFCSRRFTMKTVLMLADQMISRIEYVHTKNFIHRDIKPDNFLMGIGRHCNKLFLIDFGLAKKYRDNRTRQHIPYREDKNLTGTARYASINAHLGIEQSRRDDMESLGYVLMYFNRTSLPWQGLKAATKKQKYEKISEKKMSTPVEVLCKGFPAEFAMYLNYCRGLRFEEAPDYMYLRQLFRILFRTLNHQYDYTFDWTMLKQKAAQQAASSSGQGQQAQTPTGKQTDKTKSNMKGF
# off-target kinases [7] = target: off-target kinases (Homo sapiens, UniProt Q9H422); settings: HIPK3 (YAK1), ZLYTE, ATP Km app
# off-target kinases (Homo sapiens, UniProt Q9H422), sequence (Q9H422 whole entry): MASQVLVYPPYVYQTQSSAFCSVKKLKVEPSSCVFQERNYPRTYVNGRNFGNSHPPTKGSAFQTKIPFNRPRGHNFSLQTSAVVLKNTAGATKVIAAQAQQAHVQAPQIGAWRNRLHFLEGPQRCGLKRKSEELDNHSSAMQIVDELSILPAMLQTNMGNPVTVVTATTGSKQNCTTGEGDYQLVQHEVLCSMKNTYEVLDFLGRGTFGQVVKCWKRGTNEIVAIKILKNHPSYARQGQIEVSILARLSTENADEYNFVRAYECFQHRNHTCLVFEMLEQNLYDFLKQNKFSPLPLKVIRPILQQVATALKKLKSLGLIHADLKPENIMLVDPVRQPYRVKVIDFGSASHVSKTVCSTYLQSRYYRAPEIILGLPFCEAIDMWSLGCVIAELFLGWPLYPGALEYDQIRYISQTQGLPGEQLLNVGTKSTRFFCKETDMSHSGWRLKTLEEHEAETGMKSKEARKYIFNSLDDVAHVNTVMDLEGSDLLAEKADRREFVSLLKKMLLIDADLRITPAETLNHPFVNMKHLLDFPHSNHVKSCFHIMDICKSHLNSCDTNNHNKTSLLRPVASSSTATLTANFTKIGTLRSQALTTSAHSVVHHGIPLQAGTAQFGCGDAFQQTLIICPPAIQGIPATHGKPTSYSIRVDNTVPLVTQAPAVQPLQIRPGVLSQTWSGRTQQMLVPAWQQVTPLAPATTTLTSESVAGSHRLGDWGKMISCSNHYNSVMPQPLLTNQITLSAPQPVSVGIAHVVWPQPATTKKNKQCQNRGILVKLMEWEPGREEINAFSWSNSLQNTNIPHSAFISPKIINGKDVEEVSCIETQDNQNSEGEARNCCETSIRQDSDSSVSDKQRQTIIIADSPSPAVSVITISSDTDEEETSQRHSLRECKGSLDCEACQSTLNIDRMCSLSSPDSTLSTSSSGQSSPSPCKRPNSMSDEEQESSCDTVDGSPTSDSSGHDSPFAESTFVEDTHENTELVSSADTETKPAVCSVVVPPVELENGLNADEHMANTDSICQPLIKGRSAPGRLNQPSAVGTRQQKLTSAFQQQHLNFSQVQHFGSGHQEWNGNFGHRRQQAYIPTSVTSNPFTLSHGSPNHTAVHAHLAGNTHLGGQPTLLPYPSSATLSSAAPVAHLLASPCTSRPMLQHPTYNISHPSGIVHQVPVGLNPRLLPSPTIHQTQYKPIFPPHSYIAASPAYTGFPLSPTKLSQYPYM
# off-target kinases [8] = target: off-target kinases (Homo sapiens, UniProt Q05655); settings: PRKCD (PKC delta), ZLYTE, ATP Km app
# off-target kinases (Homo sapiens, UniProt Q05655), sequence (Q05655 whole entry): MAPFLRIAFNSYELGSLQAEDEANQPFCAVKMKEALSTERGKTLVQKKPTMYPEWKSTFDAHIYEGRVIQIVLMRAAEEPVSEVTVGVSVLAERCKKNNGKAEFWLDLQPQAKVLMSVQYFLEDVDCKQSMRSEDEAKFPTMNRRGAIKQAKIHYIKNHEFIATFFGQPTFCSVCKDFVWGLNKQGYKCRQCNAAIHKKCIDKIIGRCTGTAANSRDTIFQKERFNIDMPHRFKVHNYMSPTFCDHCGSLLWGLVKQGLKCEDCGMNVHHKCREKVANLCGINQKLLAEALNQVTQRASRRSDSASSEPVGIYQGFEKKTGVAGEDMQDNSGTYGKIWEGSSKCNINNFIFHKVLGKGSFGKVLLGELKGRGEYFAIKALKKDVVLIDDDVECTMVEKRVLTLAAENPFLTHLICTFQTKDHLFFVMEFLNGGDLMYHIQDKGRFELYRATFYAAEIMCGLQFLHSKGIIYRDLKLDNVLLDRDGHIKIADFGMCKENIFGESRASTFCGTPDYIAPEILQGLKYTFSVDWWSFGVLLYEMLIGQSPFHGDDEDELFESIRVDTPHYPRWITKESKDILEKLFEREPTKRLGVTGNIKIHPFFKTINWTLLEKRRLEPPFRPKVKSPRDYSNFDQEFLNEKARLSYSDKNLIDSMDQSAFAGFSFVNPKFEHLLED
# off-target kinases [9] = target: off-target kinases (Homo sapiens, UniProt P07333); settings: CSF1R (FMS), ATP Km app, ZLYTE
# off-target kinases [10] = target: off-target kinases (Homo sapiens, UniProt P29597); settings: TYK2, ATP Km app, ZLYTE
# off-target kinases (Homo sapiens, UniProt P29597), sequence (P29597 whole entry): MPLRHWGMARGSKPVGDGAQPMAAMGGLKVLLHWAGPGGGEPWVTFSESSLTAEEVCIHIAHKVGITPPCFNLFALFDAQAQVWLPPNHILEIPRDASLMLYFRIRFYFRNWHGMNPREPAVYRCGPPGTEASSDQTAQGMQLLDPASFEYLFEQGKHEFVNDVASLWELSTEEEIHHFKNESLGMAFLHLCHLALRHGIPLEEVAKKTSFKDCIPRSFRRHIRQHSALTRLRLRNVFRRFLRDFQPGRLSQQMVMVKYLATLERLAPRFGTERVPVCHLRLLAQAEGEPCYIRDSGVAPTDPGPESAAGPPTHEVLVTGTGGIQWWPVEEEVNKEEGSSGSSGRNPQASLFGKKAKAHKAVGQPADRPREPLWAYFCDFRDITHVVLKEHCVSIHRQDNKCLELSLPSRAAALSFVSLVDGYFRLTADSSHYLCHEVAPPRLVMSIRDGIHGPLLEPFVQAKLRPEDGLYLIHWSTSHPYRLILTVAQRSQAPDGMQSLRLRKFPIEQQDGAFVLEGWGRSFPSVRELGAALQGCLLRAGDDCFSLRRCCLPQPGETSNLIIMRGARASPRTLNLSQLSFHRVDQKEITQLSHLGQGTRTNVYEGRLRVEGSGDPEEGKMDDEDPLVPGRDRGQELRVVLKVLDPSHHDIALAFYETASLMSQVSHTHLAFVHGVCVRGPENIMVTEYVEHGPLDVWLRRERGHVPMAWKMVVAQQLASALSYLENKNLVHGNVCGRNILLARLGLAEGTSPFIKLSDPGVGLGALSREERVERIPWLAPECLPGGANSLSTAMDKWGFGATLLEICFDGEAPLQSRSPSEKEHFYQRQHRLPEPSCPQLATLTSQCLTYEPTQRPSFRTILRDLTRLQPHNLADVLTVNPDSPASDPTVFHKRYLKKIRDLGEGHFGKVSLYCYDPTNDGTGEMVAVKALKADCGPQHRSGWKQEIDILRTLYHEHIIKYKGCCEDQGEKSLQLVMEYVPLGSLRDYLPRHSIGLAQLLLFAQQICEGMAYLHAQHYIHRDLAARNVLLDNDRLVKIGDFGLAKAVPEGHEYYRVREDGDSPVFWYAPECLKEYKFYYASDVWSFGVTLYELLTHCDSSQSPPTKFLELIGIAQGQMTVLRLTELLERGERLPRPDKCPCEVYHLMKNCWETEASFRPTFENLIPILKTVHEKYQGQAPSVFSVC
structure (smiles),measurement,setting,value
"N#Cc1cc(-c2ncnc(Nc3ccc(N4CCN(C5COC5)CC4)cc3)n2)ccc1OC1CCOCC1 [Compound 1, 5-(4-((4-(4-(oxetan-3-yl)piperazin-1-yl)phenyl)amino)-1,3,5-triazin-2-yl)-2-((tetrahydro-2H-pyran-4-yl)oxy)benzonitrile]",inhibition,off-target kinases [1]; read-out: % Inhibition 1,9%
same,inhibition,off-target kinases [1]; read-out: % Inhibition 2,7%
same,inhibition,off-target kinases [1]; read-out: % Inhibition Avg,8%
same,% Inhibition 1,off-target kinases [2],−16%
same,% Inhibition 2,off-target kinases [2],−2%
same,% Inhibition Avg,off-target kinases [2],−9%
same,inhibition,off-target kinases [3]; read-out: % Inhibition 1,-1%
same,inhibition,off-target kinases [3]; read-out: % Inhibition 2,7%
same,inhibition,off-target kinases [3]; read-out: % Inhibition Avg,3%
same,inhibition,off-target kinases [4]; read-out: % Inhibition 1,17%
same,inhibition,off-target kinases [4]; read-out: % Inhibition 2,14%
same,inhibition,off-target kinases [4]; read-out: % Inhibition Avg,15%
same,inhibition,off-target kinases [5]; read-out: % Inhibition 1,33%
same,inhibition,off-target kinases [5]; read-out: % Inhibition 2,38%
same,inhibition,off-target kinases [5]; read-out: % Inhibition Avg,35%
same,inhibition,off-target kinases [6]; read-out: % Inhibition 1,2%
same,inhibition,off-target kinases [6]; read-out: % Inhibition 2,1%
same,inhibition,off-target kinases [6]; read-out: % Inhibition Avg,1%
same,inhibition,off-target kinases [7]; read-out: % Inhibition 1,15%
same,inhibition,off-target kinases [7]; read-out: % Inhibition 2,11%
same,inhibition,off-target kinases [7]; read-out: % Inhibition Avg,13%
same,inhibition,off-target kinases [8]; read-out: % Inhibition 1,4%
same,inhibition,off-target kinases [8]; read-out: % Inhibition 2,-4%
same,inhibition,off-target kinases [8]; read-out: % Inhibition Avg,0%
same,inhibition,off-target kinases [9]; read-out: % Inhibition 1,91%
same,inhibition,off-target kinases [9]; read-out: % Inhibition 2,96%
same,inhibition,off-target kinases [9]; read-out: % Inhibition Avg,93%
same,inhibition,off-target kinases [10]; read-out: % Inhibition 1,65%
same,inhibition,off-target kinases [10]; read-out: % Inhibition 2,64%
same,inhibition,off-target kinases [10]; read-out: % Inhibition Avg,64%
